Test system: cholesterol in blood
Experiment: Reduction of blood cholesterol in rats fed a cholesterol diet
Type: in vivo
Settings: male rats, 3 days, relative value: control group = 0, normal group = 100, * 5%, ** 1% significance over control; for % Inhibition (blood cholesterol), Dose in Diet 0.03%: 0.03% test compound in diet with 1% cholesterol and 0.25% sodium cholate; for % Inhibition (blood cholesterol), Dose in Diet 0.1%: 0.1% test compound in diet with 1% cholesterol and 0.25% sodium cholate
Procedure: A completely synthetic diet containing 1% of cholesterol, 0.25% of sodium cholate and 0.03% and 0.1% of the test compound is given to a group of 6 male rats having a body weight of about 50 g consecutively for 3 days, and the rats are fasted overnight. Then, the rats are decapitated, and their blood is collected to determine the cholesterol concentration in the collected blood. The concentration of cholesterol in blood is measured with Technicon Autoanalyzer (Technicon Laboratory: Method File N-24a).
Each value shown in the Table is a relative value determined based on the supposition that the value of the control group (the cholesterol-administered group) is 0 and the value of the normal group (the non-cholestero-administered group) is 100.

## N-Methyl-N-phenyldihydroabietamide
  % Inhibition (blood cholesterol), Dose in Diet 0.03%: -8%
  % Inhibition (blood cholesterol), Dose in Diet 0.1%: 27%

## N-α-Phenylethyldihydroabietamide
  % Inhibition (blood cholesterol), Dose in Diet 0.03%: 71%
  % Inhibition (blood cholesterol), Dose in Diet 0.1%: 99%

## N-Benzyldihydroabietamide
  % Inhibition (blood cholesterol), Dose in Diet 0.03%: 25%
  % Inhibition (blood cholesterol), Dose in Diet 0.1%: 64%

## CC(C)C1=CC2=CC[C@@H]3[C@](C)(CCC[C@@]3(C)C(=O)NC3CCCC3)[C@H]2CC1 [N-Cyclopentylabietamide]
  % Inhibition (blood cholesterol), Dose in Diet 0.03%: 11%
  % Inhibition (blood cholesterol), Dose in Diet 0.1%: 32%

— patent US4210671A, “Abietamide derivatives, their production and use” (priority 1974, dated 1980)
